Test results published in PubChem BioAssay AID210 (DTP/NCI, 2004).
Where “and” joins values, the source holds several entries; their conditions need not be identical. Equal entries are not always repeated. Inconclusive results and toxic doses are left out.

Tested on: CD2F1 mice, ip Colon 26 adenocarcinoma, median survival T/C
Assay: NCI In Vivo Anticancer Drug Screen. Data for tumor model Colon 26 Adenocarcinoma (intraperitoneal) in CD2F1 (CDF1) mice
Conditions: endpoint: median survival time, higher = longer survival
Procedure: The antitumor activity of compounds was measured in mice bearing transplantable tumors. Survival or tumor size were measured and the results are expressed as the measurement made in the treated group (T) divided by the measurement made in the vehicle treated control group (C). The tumor model used in this assay is Colon 26 Adenocarcinoma (intraperitoneal) in CD2F1 (CDF1) mice

[1] = dose: 12.5 mg/kg/injection, schedule: Q04DX003 (ip), vehicle: saline
[2] = dose: 25.0 mg/kg/injection, schedule: Q04DX003 (ip), vehicle: saline
[3] = dose: 50.0 mg/kg/injection, schedule: Q04DX003 (ip), vehicle: saline
[4] = dose: 100.0 mg/kg/injection, schedule: Q04DX003 (ip), vehicle: saline
[5] = dose: 200.0 mg/kg/injection, schedule: Q04DX003 (ip), vehicle: saline
[6] = dose: 400.0 mg/kg/injection, schedule: Q04DX003 (ip), vehicle: saline
[7] = dose: 25.0 mg/kg/injection, schedule: Q04DX003 (ip), vehicle: Klucel (hydroxypropylcellulose) (HPC)
[8] = dose: 50.0 mg/kg/injection, schedule: Q04DX003 (ip), vehicle: Klucel (hydroxypropylcellulose) (HPC)
[9] = dose: 100.0 mg/kg/injection, schedule: Q04DX003 (ip), vehicle: Klucel (hydroxypropylcellulose) (HPC)
[10] = dose: 3.12 mg/kg/injection, schedule: Q04DX003 (ip), vehicle: saline with Tween-80
[11] = dose: 6.25 mg/kg/injection, schedule: Q04DX003 (ip), vehicle: saline with Tween-80
[12] = dose: 12.5 mg/kg/injection, schedule: Q04DX003 (ip), vehicle: saline with Tween-80
[13] = dose: 25.0 mg/kg/injection, schedule: Q04DX003 (ip), vehicle: saline with Tween-80
[14] = dose: 50.0 mg/kg/injection, schedule: Q04DX003 (ip), vehicle: saline with Tween-80
[15] = dose: 100.0 mg/kg/injection, schedule: Q04DX003 (ip), vehicle: saline with Tween-80
[16] = dose: 200.0 mg/kg/injection, schedule: Q04DX003 (ip), vehicle: saline with Tween-80

Compound: Cc1cn(C2CC(O)C(CO)O2)c(=O)[nH]c1=O (stereo unspecified)
- T/C [1]: 98 % of control
- T/C [2]: 98 % of control
- T/C [3]: 98 % of control
- T/C (dose: 64.0 mg/kg/injection, schedule: Q04DX002 (ip), vehicle: suspension in saline): 101 % of control
- T/C [4]: 96 % of control and 100 % of control
- T/C (dose: 128.0 mg/kg/injection, schedule: Q04DX002 (ip), vehicle: saline): 88 % of control
- T/C (dose: 128.0 mg/kg/injection, schedule: Q04DX002 (ip), vehicle: suspension in saline): 100 % of control
- T/C [5]: 99 % of control and 100 % of control
- T/C (dose: 256.0 mg/kg/injection, schedule: Q04DX002 (ip), vehicle: suspension in saline): 94 % of control
- T/C [6]: 116 % of control and 98 % of control
- T/C (dose: 512.0 mg/kg/injection, schedule: Q04DX002 (ip), vehicle: suspension in saline): 94 % of control
- T/C (dose: 1024.0 mg/kg/injection, schedule: Q04DX002 (ip), vehicle: saline): 92 % of control
- T/C (dose: 1024.0 mg/kg/injection, schedule: Q04DX002 (ip), vehicle: suspension in saline): 95 % of control

Compound: COc1cccc2c1C(=O)c1c(O)c3c(c(O)c1C2=O)C[C@@](O)(C(C)=O)C[C@@H]3OC1CC(O)C(O)C(C)O1 (stereo partly specified)
- T/C (dose: 31.0 mg/kg/injection, schedule: Q07DX002 (iv), vehicle: saline): 108 % of control

Compound: Clc1ccc(C2SC=Cc3ccccc32)cc1 (stereo unspecified)
- T/C (dose: 3.12 mg/kg/injection, schedule: Q04DX002 (ip), vehicle: Klucel (hydroxypropylcellulose) (HPC)): 105 % of control
- T/C [7]: 99 % of control
- T/C [8]: 103 % of control
- T/C (dose: 62.5 mg/kg/injection, schedule: Q04DX002 (ip), vehicle: Klucel (hydroxypropylcellulose) (HPC)): 100 % of control
- T/C [9]: 97 % of control
- T/C (dose: 125.0 mg/kg/injection, schedule: Q04DX002 (ip), vehicle: Klucel (hydroxypropylcellulose) (HPC)): 98 % of control
- T/C (dose: 200.0 mg/kg/injection, schedule: Q04DX003 (ip), vehicle: Klucel (hydroxypropylcellulose) (HPC)): 105 % of control
- T/C (dose: 250.0 mg/kg/injection, schedule: Q04DX002 (ip), vehicle: Klucel (hydroxypropylcellulose) (HPC)): 96 % of control
- T/C (dose: 500.0 mg/kg/injection, schedule: Q04DX002 (ip), vehicle: Klucel (hydroxypropylcellulose) (HPC)): 100 % of control

Compound: CCC1(O)CC2CN(CCc3c([nH]c4ccccc34)C(C(=O)OC)(c3cc4c(cc3OC)N(C)C3C(O)(C(N)=O)C(O)C5(CC)C=CCN6CCC43C65)C2)C1 (stereo unspecified) (tested in a mixture with another compound)
- T/C (dose: 0.13 mg/kg/injection, schedule: Q04DX002 (ip), vehicle: water): 101 % of control
- T/C (dose: 0.25 mg/kg/injection, schedule: Q04DX002 (ip), vehicle: water): 103 % of control
- T/C (dose: 0.5 mg/kg/injection, schedule: Q04DX002 (ip), vehicle: water): 104 % of control
- T/C (dose: 1.0 mg/kg/injection, schedule: Q04DX002 (ip), vehicle: water): 113 % of control
- T/C (dose: 2.0 mg/kg/injection, schedule: Q04DX002 (ip), vehicle: water): 118 % of control

Compound: CN1C(=O)CC2(CCN(CCCC(=O)c3ccc(F)cc3)CC2)C1=O
- T/C [10]: 96 % of control
- T/C [11]: 98 % of control
- T/C [12]: 100 % of control
- T/C [13]: 100 % of control
- T/C [14]: 102 % of control

Compound: CC(=O)Nc1ccc(O)c(O)c1
- T/C [12]: 94 % of control
- T/C [13]: 106 % of control
- T/C [14]: 96 % of control
- T/C [15]: 120 % of control
- T/C [16]: 100 % of control
- T/C (dose: 400.0 mg/kg/injection, schedule: Q04DX003 (ip), vehicle: saline with Tween-80): 108 % of control

Compound: N=C(N)SCc1c2ccccc2c(CSC(=N)N)c2ccccc12
- T/C [1]: 241 % of control
- T/C [2]: 186 % of control
- T/C [3]: 248 % of control
- T/C [4]: 216 % of control
- T/C [5]: 197 % of control

Compound: CN(C)C(=O)c1cccc(COc2ccc(N3C(N)=NC(N)=NC3(C)C)cc2Cl)c1
- T/C (dose: 24.0 mg/kg/injection, schedule: Q06HX018 (ip), vehicle: saline): 96 % of control
- T/C (dose: 36.0 mg/kg/injection, schedule: Q06HX018 (ip), vehicle: saline): 98 % of control

Compound: COc1cccc2c1C(=O)c1c(O)c3c(c(O)c1C2=O)C[C@@](O)(C(C)=O)C[C@@H]3OC1CC(N(Cc2ccccc2)Cc2ccccc2)C(O)C(C)O1 (stereo partly specified)
- T/C (dose: 3.0 mg/kg/injection, schedule: Q04DX002 (ip), vehicle: saline with Tween-80): 104 % of control

Compound: CC1C(=O)CCC2(C)C1CCC1CC3CC12CCC3(O)CO (stereo unspecified)
- T/C (dose: 25.0 mg/kg/injection, schedule: Q04DX002 (ip), vehicle: saline + alcohol): 100 % of control
- T/C (dose: 50.0 mg/kg/injection, schedule: Q04DX002 (ip), vehicle: saline + alcohol): 106 % of control
- T/C (dose: 100.0 mg/kg/injection, schedule: Q04DX002 (ip), vehicle: saline + alcohol): 92 % of control

Compound: CN(C)CCNc1cccc2c1C(=O)c1cccc(NCCN(C)C)c1C2=O
- T/C (dose: 1.88 mg/kg/injection, schedule: Q01DX009 (ip), vehicle: saline): 103 % of control
- T/C (dose: 3.75 mg/kg/injection, schedule: Q01DX009 (ip), vehicle: saline): 108 % of control
- T/C (dose: 7.5 mg/kg/injection, schedule: Q01DX009 (ip), vehicle: saline): 99 % of control
- T/C (dose: 15.0 mg/kg/injection, schedule: Q01DX009 (ip), vehicle: saline): 113 % of control

Compound: COC(OC(CO)C(O)S(=O)(=O)O)C(O)S(=O)(=O)O (stereo unspecified)
- T/C [1]: 97 % of control
- T/C [2]: 102 % of control
- T/C [3]: 102 % of control
- T/C [4]: 108 % of control
- T/C [5]: 109 % of control
- T/C [6]: 100 % of control

Compound: COc1c(O)c2c(c3cc(C(=O)N4CCc5c4c(O)c(OC)c4[nH]c(C(=O)N6CC7CC78C6=CC(=O)c6[nH]cc(C)c68)cc54)[nH]c13)CCN2C(N)=O (stereo unspecified)
- T/C (dose: 6.3 micrograms/kg/injection, schedule: Q01DX009 (ip), vehicle: saline): 104 % of control
- T/C (dose: 12.5 micrograms/kg/injection, schedule: Q01DX009 (ip), vehicle: saline): 99 % of control
- T/C (dose: 25.0 micrograms/kg/injection, schedule: Q01DX009 (ip), vehicle: saline): 115 % of control
- T/C (dose: 50.0 micrograms/kg/injection, schedule: Q01DX009 (ip), vehicle: saline): 150 % of control
- T/C (dose: 100.0 micrograms/kg/injection, schedule: Q01DX009 (ip), vehicle: saline): 123 % of control

Compound: Cc1c2ccncc2c(C)c2c1[nH]c1ccccc12
- T/C (dose: 12.5 mg/kg/injection, schedule: Q04DX002 (ip), vehicle: Klucel (hydroxypropylcellulose) (HPC)): 158 % of control
- T/C (dose: 12.5 mg/kg/injection, schedule: Q04DX002 (ip), vehicle: saline): 122 % of control
- T/C (dose: 12.5 mg/kg/injection, schedule: Q04DX003 (ip), vehicle: Klucel (hydroxypropylcellulose) (HPC)): 186 % of control
- T/C [12]: 112 % of control
- T/C (dose: 25.0 mg/kg/injection, schedule: Q04DX002 (ip), vehicle: saline): 156 % of control
- T/C [7]: 263 % of control
- T/C [13]: 152 % of control
- T/C (dose: 50.0 mg/kg/injection, schedule: Q04DX002 (ip), vehicle: Klucel (hydroxypropylcellulose) (HPC)): 158 % of control
- T/C [8]: 242 % of control
- T/C (dose: 100.0 mg/kg/injection, schedule: Q04DX002 (ip), vehicle: Klucel (hydroxypropylcellulose) (HPC)): 170 % of control
- T/C (dose: 100.0 mg/kg/injection, schedule: Q04DX002 (ip), vehicle: saline): 150 % of control
- T/C [9]: 242 % of control
- T/C [15]: 165 % of control
- T/C (dose: 200.0 mg/kg/injection, schedule: Q04DX002 (ip), vehicle: saline): 156 % of control
- T/C [16]: 214 % of control

Compound: CCC[P+](c1ccccc1)(c1ccccc1)c1ccccc1
- T/C [10]: 112 % of control
- T/C [11]: 107 % of control
- T/C [12]: 104 % of control
- T/C [13]: 110 % of control
- T/C [14]: 110 % of control

Compound: CCCCCCCC(=O)[O][Hg][CH2]C1COC([CH2][Hg][O]C(=O)CCCCCCC)CO1 (stereo unspecified)
- T/C [12]: 95 % of control
- T/C [13]: 90 % of control

Compound: CC1(CO)C(O)CCC2(C)C1C(O)CC1CC3CC12CCC3(O)CO (stereo unspecified)
- T/C (dose: 12.5 mg/kg/injection, schedule: Q04DX002 (ip), vehicle: distilled water + Tween-80): 120 % of control
- T/C (dose: 50.0 mg/kg/injection, schedule: Q04DX002 (ip), vehicle: distilled water + Tween-80): 98 % of control
- T/C (dose: 100.0 mg/kg/injection, schedule: Q04DX002 (ip), vehicle: distilled water + Tween-80): 110 % of control
- T/C (dose: 200.0 mg/kg/injection, schedule: Q04DX002 (ip), vehicle: distilled water + Tween-80): 103 % of control
